Results on 22 molecules are retold here after patent US6362166B1, “Antipicornaviral compounds and methods for their use and preparation” (Agouron Pharmaceuticals, Inc., priority 1996, dated 2002).

As usually defined, the EC50 is the concentration giving half of the maximal effect. A word on the CC50: it is the concentration at which the toxic effect on the cells reaches its halfway point. Usually Ki stands for a measure of affinity in units of concentration, obtained from inhibition or displacement.

Like-named read-outs stand apart in the source and are kept apart here.

For series [1], the target named is T1, Recombinant Rhinovirus 3C protease (RVP) serotype-14 (Human rhinovirus 14, UniProt P03303).
T1 construct: Recombinant Rhinovirus 3C proteases from serotypes 14, 16, 2 or 89; made in house
T1 sequence (P03303 1538-1719): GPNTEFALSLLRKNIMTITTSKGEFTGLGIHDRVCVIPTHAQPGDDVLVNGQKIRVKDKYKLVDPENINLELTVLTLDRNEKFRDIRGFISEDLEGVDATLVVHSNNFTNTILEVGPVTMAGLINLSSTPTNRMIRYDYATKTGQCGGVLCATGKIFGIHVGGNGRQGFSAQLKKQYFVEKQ
The series is described as follows: Inhibition of Rhinovirus Protease (fluorescence resonance energy transfer assay), serotype 14. It is filed as biochemical, human rhinovirus (HRV). The following applies: RVP serotype-14; for kobs/I: progress curves in enzyme start experiments; for Ki: 10 minute preincubation, substrate start, read-out: INHIB (Ki); for INHIB (percent inhibition): 10 minute preincubation with 50 nM RVP. As to the method: Stock solution (50 mM, in DMSO) of various compounds were prepared; dilutions were in the same solvent. […] Assays contained 2% DMSO, 50 mM tris pH 7.6, 1 mM EDTA, a compound at the indicated concentrations, approximately 1 μM substrate, and 50-100 nM protease. […] The kobs/I values were obtained from reactions initiated by addition of enzyme rather than substrate. RVP activity is measured in the fluorescence resonance energy transfer assay. […] In the uncleaved peptide, the EDANS fluorescence was quenched by the proximal DABCYL moeity. When the peptide was cleaved, the quenching was relieved, and activity was measured as an increase in fluorescence signal.
In the above table, all data is RVP serotype-14 unless otherwise noted in parentheses. All strains of human rhinovirus (HRV) were purchased from American Type Culture Collection (ATCC), except for serotype 14, which was produced from the infectious cDNA clone constructed and supplied to us by Dr. Roland Rueckert at the Institute for Molecular Virology, University of Wisconsin, Madison, Wisc. […] The data in the column designated kobs/I was measured from progress curves in enzyme start experiments.

Series [2] has as its system HRV-14. The series can be described thus: Antirhinoviral HI-HeLa Cell Culture Assay (Cell Protection Assay, XTT dye reduction). It is filed as cell-based, human rhinovirus (HRV) serotype-14. The following applies: HI-HeLa cells infected with HRV-14, m.o.i. 0.13; two days; XTT; read-out: EC50. As for the experimental part: In the Cell Protection Assay, the ability of compounds to protect cells against HRV infection was measured by the XTT dye reduction method. This method is described in Weislow, O. S., R. Kiser, D. L. Fine, J. Bader, R. H. Shoemaker, and M. R. Boyd, J. Natl. Cancer Inst. 1989, 81, 577-586, which is incorporated herein by reference.
(§1) HI-HeLa cells were infected with HRV-14 at a multiplicity of infection (m.o.i.) of 0.13 (virus particles/cell) or mock-infected with medium only. Infected or mock-infected cells were resuspended at 8×10^5 cells per mL and incubated with appropriate concentration of compounds of formulas I and II. Two days later, XTT/PMS was added to test plates and the amount of formazan produced was quantified spectrophotometrically at 450/650 nm. […] The therapeutic index (TI) was calculated by dividing the CC50 by the EC50.
(§2) All strains of human rhinovirus (HRV) for use in this assay were purchased from American Type Culture Collection (ATCC), except for HRV serotype-14, which was produced from the infectious cDNA clone, constructed and supplied to us by Dr. Roland Rueckert at the Institue for Molecular Virology, University of Wisconsin, Madison, Wisc. HRV stocks were propagated, and antiviral assays were perforemd in HI-HeLa cells (ATCC). Cells were grwon in Minimal Essential Medium, available from Life Technologies, with 10% fetal bovine serum.
The compounds were tested against control compounds WIN 51711, WIN 52084, and WIN 54954, all obtained from Sterling-Winthrop Pharmaceuticals, and control compound Pirodavir, obtained from Janssen Pharmaceuticals.
On the technique in general: Tetrazolium assays rely on reduction of a dye to a coloured formazan, in cell work by metabolically active cells.

Series [3] relates to HI-HeLa cells. The series can be described thus: Cytotoxicity in mock-infected HI-HeLa cells (antirhinoviral assay, XTT). In kind it is cell-based. As for the experimental part:
as §1, §2

[4] abbreviates: mock-infected HI-HeLa cells, two days, XTT, read-out: CC50.

Consider `CCOC(=O)/C(C)=C/[C@H](CCC(N)=O)NC(=O)[C@H](Cc1ccc(F)cc1)NC(=O)[C@@H](NC(=O)SC1CCCC1)C(C)(C)C` [Compound 177, Ethyl-2-Methyl-3-[Cyclopentylthiocarbonyl-L-α-(t-Butyl-Gly)-L-(4-F-Phe)-L-Gln]-E-Propenoate], for which the kobs/I in series [1] was 80,300 M-1 sec-1. In series [2], the EC50 is 0.5 µM. The CC50 in series [3] was greater than 100 µM.

As for `CCOC(=O)/C=C/[C@H](CCC(N)=O)NC(=O)[C@@H](NC(=O)[C@H](CC(C)C)NC(=O)OCc1ccccc1)C(C)O` (stereo partly shown) [Compound 134], the kobs/I in series [1] was 1,769 M-1 sec-1. In addition, in series [2], the EC50 was determined as 56.2 µM. This molecule also came in with a CC50 in series [3] greater than 320 µM.

Turning to `CCOC(=O)/C(C)=C/[C@H](CCC(N)=O)NC(=O)[C@H](Cc1ccccc1)NC(=O)[C@H](CC(C)C)NC(=O)OCc1ccccc1` [Compound 82], in series [1], the Ki worked out at 26 µM and the kobs/I was 7,300 M-1 sec-1. In series [2], the EC50 stood at 3 µM. For the same molecule, in series [3], the CC50 is greater than 320 µM.

As for `CCOC(=O)/C=C/[C@H](CCC(N)=O)NC(=O)[C@H](C)NC(=O)[C@H](CC(C)C)NC(=O)OCc1ccccc1` [Compound 109], the kobs/I in series [1] is reported as 1,348 M-1 sec-1. Further, in series [2], the EC50 was determined as 20 µM. The CC50 in series [3] is greater than 320 µM.

Turning to `CCOC(=O)/C=C/[C@H](CCC(N)=O)NC(=O)[C@H](Cc1ccccc1)NC(=O)[C@H](CC(C)C)NC(=O)C1CCCC1` [Compound 116], in series [1], the kobs/I is 23,670 M-1 sec-1. Further, in series [2], the EC50 is 0.6 µM. For the same molecule, the CC50 in series [3] is greater than 320 µM.

Consider `CC(C)C[C@H](NC(=O)OCc1ccccc1)C(=O)N[C@@H](Cc1ccccc1)C(=O)N[C@H](/C=C/C(=O)N1CCc2cccc(S(C)(=O)=O)c21)CCC(N)=O` [Compound 95], for which the kobs/I in series [1] is less than 1000 M⁻¹ s⁻¹. For the same molecule, the EC50 in series [2] is greater than 320 µM. Also, in series [3] (setting [4]), the half-maximal cytotoxic concentration (CC50) is greater than 320 µM.

As to `CC(C)CC(NC(=O)OCc1ccccc1)C(=O)NC(Cc1ccccc1)C(=O)NC(C=CC(=O)N1CCC(O)C1)CCC(N)=O` (stereo not shown) [Compound 39], the kobs/I in series [1] is reported as 1,200 M-1 sec-1. Moreover, the EC50 in series [2] was greater than 320 µM. Moreover, the CC50 in series [3] is greater than 320 µM.

Turning to `CCOC(=O)C=CC(CCC(N)=O)NC(=O)C(Cc1ccccc1)NC(=O)C(NC(=O)SC1CCCC1)C(C)(C)[S+](C)[O-]` (mixture of isomers) [Compound 179, Ethyl-3-(Cyclopentylthiocarbonyl-L-[S(O)-Me-Pen]-L-Phe-L-Gln)-E-Propenoate], in series [1], the Ki was 0.36 µM and the kobs/I is 300,000 M-1 sec-1. Besides, in series [2], the half-maximal effective concentration (EC50) was determined as 1.78 µM. Moreover, in series [3], the cytotoxic concentration (CC50) is greater than 100 µM.

As for `CC(C)C[C@H](NC(=O)OCc1ccccc1)C(=O)N[C@@H](Cc1ccccc1)C(=O)N[C@H](/C=C/C(=O)C(C)(C)C)CCC(N)=O` [Compound 52], the kobs/I in series [1] was 15,000 M-1 sec-1. Also, the EC50 in series [2] was 1.7 µM. The CC50 in series [3] is 5.6 µM.

Turning to `CCCS(=O)(=O)N[C@@H](Cc1ccccc1)C(=O)N[C@H](/C=C/C(=O)OCC)CCC(N)=O` [Compound 31, Ethyl-3-[N-(Propylsulfonyl)-L-Phe-L-Gln]-E-Propenoate], in series [1] (10 μM compound), the “INHIB (percent inhibition)” value was 25(10) percent. Further, the kobs/I in series [1] worked out at 21 M⁻¹ s⁻¹. Further, in series [2], the EC50 turned out to be 50.1 µM. In series [3], the CC50 is greater than 100 µM.

With `CCOC(=O)/C=C/[C@H](COC(=O)NC(=O)CCl)NC(=O)[C@H](Cc1ccccc1)NC(=O)[C@H](CC(C)C)NC(=O)OCc1ccccc1` [Compound 122], the kobs/I in series [1] is given as 1,252 M-1 sec-1. Further, in series [2], the EC50 was 1.78 µM. In addition, the CC50 in series [3] is 10 µM.

As to `CCOC(=O)/C=C/[C@H](CCC(N)=O)NC(=O)[C@H](Cc1ccc(F)cc1)NC(=O)[C@@H](NC(=O)SC1CCCC1)C(C)C` [Compound 184], the kobs/I in series [1] is 59,900 M-1 sec-1. In series [2], the EC50 stood at 0.19 µM. The molecule also showed a CC50 in series [3] greater than 100 µM.

On to `CC(C)C[C@H](NC(=O)OCc1ccccc1)C(=O)N[C@@H](Cc1ccccc1)C(=O)N[C@H](/C=C/C(=O)N1CCCCO1)CCC(N)=O` [Compound 84], for which, in series [1], the kobs/I is reported as 18,650 M-1 sec-1. The concentration giving a half-maximal response (EC50) in series [2] came to 16 µM. Moreover, in series [3] (setting [4]), the CC50 is greater than 320 µM.

Regarding `CC(C)C[C@H](NC(=O)OCc1ccccc1)C(=O)N[C@@H](Cc1ccccc1)C(=O)N[C@H](/C=C/C(=O)c1ccco1)CCC(N)=O` [Compound 49], the kobs/I in series [1] is listed as 460,000 M-1 sec-1. For the same molecule, in series [2], the EC50 amounted to 2.4 µM. The molecule also yielded a CC50 in series [3] of 19.1 µM.

As for `CCOC(=O)/C=C/[C@H](CCC(N)=O)NC(=O)[C@H](Cc1ccc(OCC)cc1)NC(=O)[C@H](CC(C)C)NC(=O)OCc1ccccc1` [Compound 136], the kobs/I in series [1] is listed as 4,210 M-1 sec-1. For the same molecule, the 50% effective concentration (EC50) in series [2] was greater than 320 µM. For the same molecule, the CC50 in series [3] is greater than 320 µM.

For the molecule `CCOC(=O)/C=C/[C@H](CCC(N)=O)NC(=O)[C@H](Cc1ccc(OC(C)=O)cc1)NC(=O)[C@H](CC(C)C)NC(=O)OCc1ccccc1` [Compound 100], in series [1], the kobs/I is recorded as 1,200 M-1 sec-1. For the same molecule, the EC50 in series [2] was found to be 11.1 µM. The CC50 in series [3] (setting [4]) was greater than 320 µM.

In the case of `CCOC(=O)/C=C/[C@H](CCC(N)=O)NC(=O)[C@H](CSCC)NC(=O)[C@H](CC(C)C)NC(=O)OCc1ccccc1` [Compound 143], in series [1], the kobs/I is on record as 2,963 M-1 sec-1. Moreover, the EC50 in series [2] is 10 µM. Also, in series [3], the CC50 was greater than 320 µM.

`CCOC(=O)/C=C/[C@H](CNC(N)=O)NC(=O)[C@H](Cc1ccccc1)NC(=O)[C@H](CC(C)C)NC(=O)OCc1ccccc1` [Compound 16, Ethyl-3-[CBZ-L-Leu-L-Phe-L-(N-carbamyl-amino)-Ala]-E-Propenoate]: in series [1] ([…] compound), the “INHIB (percent inhibition)” value is given as 40(0.25) percent. The kobs/I in series [1] is on record as 3,500 M-1 sec-1. Moreover, in series [2], the EC50 was determined as 32 µM. Also, in series [3], the CC50 is greater than 100 µM.

For the molecule `CCOC(=O)/C=C/[C@H](CCC(N)=O)NC(=O)[C@H](Cc1ccc(C(N)=O)cc1)NC(=O)[C@H](CC(C)C)NC(=O)OCc1ccccc1` [Compound 133], the kobs/I in series [1] is given as 9,600 M-1 sec-1. Further, in series [2], the EC50 is greater than 177 µM. In series [3], this molecule showed a CC50 of 177 µM.

For the molecule `CCOC(=O)/C(C)=C/[C@H](CCC(N)=O)NC(=O)[C@H](Cc1ccccc1)NC(=O)[C@@H](NC(=O)SCC)C(C)(C)C` [Compound 168, Ethyl-2-Methyl-3-[Ethylthiocarbonyl-L-α-(t-Butyl-Gly)-L-Phe-L-Gln]-E-Propenoate], the kobs/I in series [1] is on record as 37,800 M-1 sec-1. Also, the EC50 in series [2] turned out to be 0.32 µM. For the same molecule, the CC50 in series [3] is greater than 100 µM.

With `CCOC(=O)/C=C/[C@H](CCC(N)=O)NC(=O)[C@H](Cc1ccccc1)NC(=O)[C@H](CC(C)C)NC(=O)C(C)C` [Compound 117], in series [1], the kobs/I is given as 18,760 M-1 sec-1. Moreover, in series [2], the EC50 was 1 µM. Moreover, in series [3], the CC50 was greater than 320 µM.

As for `CCOC(=O)/C=C/[C@H](CCC(N)=O)NC(=O)[C@H](Cc1ccccc1)NC(=O)[C@@H](NC(=O)SC1CCCC1)C(C)(C)SC` [Compound 178, Ethyl-3-[Cyclopentylthiocarbonyl-L-(S-Me-Pen)-L-Phe-L-Gln]-E-Propenoate], in series [1], the kobs/I was 286,300 M-1 sec-1. Besides, in series [2], the EC50 is 0.1 µM. The CC50 in series [3] was greater than 100 µM.
